What was measured:
adult skin fibroblasts [1] = assay: myofibroblast transformation assay, Western blot of α-SMA expression; assay type: cell-based, human; conditions: co-treatment with TGF-β1 2 ng/ml for 96 hrs in serum-free medium; EP2 agonist 100 nM, EP4 agonist 10 nM
Experimental: (§1) To perform the myofibroblast transformation assay, adult skin fibroblasts were cultured until 70% confluent, washed with phosphate buffered saline (PBS), and then starved in serum-free medium for 48 hours. Post starvation, cells were treated with TGF-β1 at 2 ng/ml alone or in combination with Compound V—100 nM, Compound II—10 nM or vehicle for 96 hrs in a fresh serum-free medium (TGF-beta1 from Sigma Aldrich, USA). Cell lysates were collected at the end of the study and Western blot was performed to monitor the expression of alpha-smooth muscle actin (α-SMA), the marker of myofibroblasts.
Cells were washed with cold PBS three times and lysed with a lysis buffer containing phosphatase inhibitors and proteinase inhibitors (Invitrogen, San Diego, Calif.). Protein level in lysates was quantified (bicinchoninic acid (BCA) protein assay kit, Pierce, USA). For Western blot, an equal amount of protein was applied at each lane, and subjected to electrophoresis. […] Fluorescence signals associated with target proteins were detected upon exposure to fluorescence-sensitive films (Cell signaling Technology, Inc., Berverly, Mass.). […] Beta-actin, a house-keeping gene, was also quantified on the same membrane as an internal control for loading amount. […]

adult skin fibroblasts [2] = assay: myofibroblast transformation, anti-α-SMA immunocytochemistry / morphology; assay type: cell-based, human; conditions: co-treatment with TGF-β1 in serum-free medium; EP2 agonist 100 nM, EP4 agonist 10 nM
Description: FIGS. 1A-D show immunohistochemical staining of human adult skin fibroblasts treated with vehicle (FIG. 1A), transforming growth factor beta-1 (TGF-β1; FIG. 1B), TGF-β1+ prostaglandin receptor subtype-4 (EP4) agonist (FIG. 1C), or TGF-β1+ prostaglandin receptor subtype 2 (EP2) agonist (FIG. 1D). TGF-β1 induced transformation of myofibroblasts, which stained green with anti-alpha-smooth muscle actin (α-SMA) immunocytochemistry.
as §1
To perform the myofibroblast transformation assay, adult skin fibroblasts were cultured until 70% confluent, washed with PBS, and then starved in serum-free medium for 48 hrs. Post starvation, cells were treated with TGF-beta1 at 2 ng/ml alone or in combination with Compound III—100 nM, Compound I—10 nM or vehicle for 96 hrs in a fresh serum-free medium (TGF-β1 from Sigma Aldrich, USA). Cell lysates were collected at the end of the study and Western blot was performed to monitor the expression of alpha-smooth muscle actin (α-SMA), the marker of myofibroblasts.
Normal skin fibroblasts are slim and spindle-shaped without detectable α-SMA (marker of myofibroblasts), 6 days post culturing in a serum-free medium (FIGS. 1-2).

| Structure (SMILES) | reduction of TGF-β1-induced α-SMA expression (Western blot) (adult skin fibroblasts [1]) | cell size (TGF-β1-induced increase) (adult skin fibroblasts [2]) | α-SMA positive stress fibers (adult skin fibroblasts [2]) |
| --- | --- | --- | --- |
| O=C(O)CCCCCCN1C(=O)CC[C@@H]1/C=C/C(O)Cc1ccccc1 (stereo partly drawn) [Compound III] | approximately 50% | but not cell size | significantly reduced |
| CC1(C)C(=O)[C@H](C/C=C\CCCC(=O)O)[C@@H](/C=C/[C@H](O)CCc2sc3ccccc3c2Cl)[C@@H]1O [Compound I] | ~75% | but not cell size | significantly reduced |

— patent publication US20120046332A1, “COMPOSITIONS AND METHODS FOR TREATING CORNEAL HAZE” (ALLERGAN, INC., priority 2010, published 2012)
